According to article PMC6255327, “Design of Antimicrobially Active Small Amphiphilic Peptide Dendrimers” (Molecules, 2009):
In brackets after ≈: the same amount, converted by molar mass. Where a name gives a salt, the structure may show the parent alone. Read-outs that look alike come from different tables or passages of the source.

What was measured:
[1] = system: S. aureus ATCC 25923; experiment: microbe, parasite or virus in culture; assay type: cell-based, Staphylococcus aureus; conditions: read-out: Minimal inhibitory concentration (MIC)
Experimental: (§1) Bacteria. Staphylococcus aureus ATCC 25923, Pseudomonas aeruginosa ATCC 27853, Escherichia coli ATCC 25922 and Staphylococcus aureus ATCC 43300 were cultivated on tryptone - soy agar (TSA; Oxoid). Klebsiella pneumoniaeATCC 13882, Bordetella bronchiseptica ATCC 4617, Acinetobacter baumannii ATCC 19606 were cultivated onto nutrient agar (Difco). Escherichia coli ATCC BAA-198 was cultivated on TSA with ceftazidime (10 µg/mL or 15.7 μM; Sigma). All strains were incubated during 24 hrs at 37 °C.
(§2) Medium. Mueller – Hinton Broth (Oxoid) was supplemented with cations: 12.5 mg Mg ^++/L and25 mg Ca^++/L. The pH of the medium after sterilization is between 7.2 and 7.4 [cation–adjusted Mueller – Hinton Broth” (CAMHB)].
(§3) Reference method. Broth microdilution susceptibility test was performed as described in […] reference method M7-A7 (2). A series of the twofold dendrimers dilutions in DMSO and twofold polymyxin B and penicillin G dilutions in CAMHB were diluted […] with CAMHB. Aliquots (95 µL) were dispensed into microdilution sterile plates (Mar-Four). Then, bacteria inoculum (5 µL) containing 5 × 10^4 CFU/mL were added. The final concentration of dendrimers ranged from 128 to 2 µg/mL [or 105 to 1.6 μM for an average molecular mass for 7 series (1213) and 61 to 0.9 μM for an average molecular mass for 10 series(2,103)], polymyxin B and penicillin G from 8 – 0.15 µg /mL (or 5.8 to 0.1 μM and 21.5 to 0.4 μM, respectively for polymyxin B and penicillin G), all in twofold dilution steps. The plates were incubated at 35 °C and read after 18 or 24 hours depending on bacterial strain. MICs (Minimal Inhibitory Concentration) was defined as the lowest drug concentration that reduced growth by 100%.

[2] = system: E.coli ATCC 25922; assay type: cell-based, Escherichia coli
Experimental: as §1, §2, §3

[3] = system: B. bronchiseptica ATCC 4617; assay type: cell-based, Bordetella bronchiseptica; conditions: ATCC 4617, 24 h
Experimental: as §1, §2, §3

[4] = system: K. pneumoniae ATCC 13882; assay type: cell-based, Klebsiella pneumoniae; conditions: ATCC 13882, 24 h
Experimental: as §1, §2, §3

[5] = system: S. aureus ATCC 43300; assay type: cell-based, Staphylococcus aureus; conditions: ATCC 43300, 24 h
Experimental: as §1, §2, §3

[6] = system: C. parapsilosis ATCC 22019; assay type: cell-based, Candida parapsilosis; conditions: ATCC 22019, 48 h, pH 7
Experimental: (§4) Yeasts: Candida albicans ATCC 90028, Candida parapsilosis ATCC 22019 and Candida krusei ATCC 6258 were cultivated onto Sabouraud dextrose agar (Difco) during 24 hrs at 35 °C.
(§5) Medium: RPMI – 1640 (Sigma) supplemented with 0.2% (wt/vol) glucose, 0.3 g/L L-glutamine, 0.0053 g/L phenol red, buffered with morpholinopropanesulfonic acid (MOPS; Sigma) at a final concentration of 0.165 M and adjusted to pH 7.0 was prepared.
(§6) Reference Method: The broth microdilution susceptibility test was performed as described in Clinical and Laboratory Standards Institute (CLSI) reference method M27 – A2 (1). A series of the twofold dendrimers and amphotericin B dilutions in DMSO were diluted 1:49 with RPMI.

[7] = system: C. albicans ATCC 90028; assay type: cell-based, Candida albicans; conditions: ATCC 90028, 48 h, pH 7
Experimental: as §4, §5, §6

[8] = system: P. aeruginosa ATCC 27853; assay type: cell-based, Pseudomonas aeruginosa; conditions: ATCC 27853, 24 h
Experimental: as §1, §2, §3

[9] = system: E. coli ATCC BAA-198; assay type: cell-based, Escherichia coli; conditions: ATCC BAA-198, 24 h
Experimental: as §1, §2, §3

[10] = system: A. baumani ATCC 19606; assay type: cell-based, Acinetobacter baumannii; conditions: ATCC 19606, 24 h
Experimental: as §1, §2, §3

[11] = system: C. krusei ATCC 6258; experiment: microbe, parasite or virus in culture; assay type: cell-based, Candida krusei; conditions: read-out: Minimal inhibitory concentration (MIC)
Experimental: as §4, §5, §6

[12] = S. aureus ATCC 25923, broth microdilution CLSI M7-A7, CAMHB pH 7.2-7.4, 35 °C, read after 18 or 24 h, MIC = lowest concentration that reduced growth by 100%
[13] = E. coli ATCC 25922, broth microdilution CLSI M7-A7, CAMHB, 35 °C, read after 18 or 24 h, 100% growth reduction

| Structure (SMILES) | MIC [1, 12] [µM] | Minimal inhibitory concentration (MIC) [2, 13] [µM] | Minimal inhibitory concentration (MIC) [3] [µM] | MIC ([1]; ATCC 25923, 24 h, pH 7.2) [µM] | Minimal inhibitory concentration (MIC) [4] [µM] | Minimal inhibitory concentration (MIC) [5] [µM] | Minimal inhibitory concentration (MIC) [6] [µM] | Minimal inhibitory concentration (MIC) [7] [µM] | Minimal inhibitory concentration (MIC) [8] [µM] | Minimal inhibitory concentration (MIC) ([2]; ATCC 25922, 24 h) [µM] | Minimal inhibitory concentration (MIC) [9] [µM] | Minimal inhibitory concentration (MIC) [10] [µM] | MIC ([11]; ATCC 6258, 48 h, pH 7) [µM] | MIC ([1]; Staphylococcus aureus, ATCC25923, S. aureus ATCC 25923, broth microdilution CLSI M7-A7, CAMHB pH 7.2-7.4, 35 °C, read after 18 or 24 h, MIC = lowest concentration that reduced growth by 100%) [µM] | MIC ([11]; Pichia kudriavzevii, ATCC6258, C. krusei ATCC 6258, broth microdilution CLSI M27-A2, RPMI-1640 with MOPS pH 7.0, 35 °C, read after 24 and 48 h, 100% growth reduction) [µM] |
| --- | --- | --- | --- | --- | --- | --- | --- | --- | --- | --- | --- | --- | --- | --- | --- |
| NCCCN(CCCN)CCC[C@@H](CO)N(CCCN)CCCN [Compound 5c, N,N’,N,N’-tetrakis(3-aminopropyl)-L-α,δ-diaminopentanol] | 113 (≈ 39.2 µg/mL) | >226 |  |  |  |  |  |  |  |  |  |  |  |  |  |
| NCCCN(CCCN)CCCC[C@@H](CO)N(CCCN)CCCN [Compound 5d, N,N’,N,N’-tetrakis(3-aminopropyl)-L-α,ε-diaminohexanol] | 221 (≈ 79.7 µg/mL) | >221 |  |  |  |  |  |  |  |  |  |  |  |  |  |
| NCCCC[C@H](NC(=O)OCc1ccccc1Cl)C(=O)NCCCN[C@@H](CN(CCCNC(=O)[C@H](CCCCN)NC(=O)OCc1ccccc1Cl)CCCNC(=O)[C@H](CCCCN)NC(=O)OCc1ccccc1Cl)C(=O)NCc1ccccc1 [Compound 7e, N,N,N’-tris[(N^α-2-chlorobenzyloxycarbonyl)-L-lysil-3-aminopropyl]-L-diaminoalanine benzylamide pentahydrochloride] |  |  | 11 | 2.8 | >89 | 11.8 | 88 | >88 | 24.3 | 11.8 | >88 | >89 | 44 |  |  |
| NCCCC[C@H](NC(=O)OCc1ccccc1Cl)C(=O)NCCCN[C@@H](CCN(CCCNC(=O)[C@H](CCCCN)NC(=O)OCc1ccccc1Cl)CCCNC(=O)[C@H](CCCCN)NC(=O)OCc1ccccc1Cl)C(=O)NCc1ccccc1 [Compound 7f, N,N,N’-tris[(N^α-2-chlorobenzyloxycarbonyl)-L-lysil-3-aminopropyl]-L-diaminobutyro benzylamide pentahydrochloride] |  |  | 11 | 11.7 | >88 | 10.3 | 89 | >89 | 48 | 48 | >89 | >88 | 44 |  |  |

Now from value to molecule:

| MIC [1, 12] [µM] | Minimal inhibitory concentration (MIC) [2, 13] [µM] | Minimal inhibitory concentration (MIC) [3] [µM] | MIC ([1]; ATCC 25923, 24 h, pH 7.2) [µM] | Minimal inhibitory concentration (MIC) [4] [µM] | Minimal inhibitory concentration (MIC) [5] [µM] | Minimal inhibitory concentration (MIC) [6] [µM] | Minimal inhibitory concentration (MIC) [7] [µM] | Minimal inhibitory concentration (MIC) [8] [µM] | Minimal inhibitory concentration (MIC) ([2]; ATCC 25922, 24 h) [µM] | Minimal inhibitory concentration (MIC) [9] [µM] | Minimal inhibitory concentration (MIC) [10] [µM] | MIC ([11]; ATCC 6258, 48 h, pH 7) [µM] | MIC ([1]; Staphylococcus aureus, ATCC25923, S. aureus ATCC 25923, broth microdilution CLSI M7-A7, CAMHB pH 7.2-7.4, 35 °C, read after 18 or 24 h, MIC = lowest concentration that reduced growth by 100%) [µM] | MIC ([11]; Pichia kudriavzevii, ATCC6258, C. krusei ATCC 6258, broth microdilution CLSI M27-A2, RPMI-1640 with MOPS pH 7.0, 35 °C, read after 24 and 48 h, 100% growth reduction) [µM] | Structure (SMILES) |
| --- | --- | --- | --- | --- | --- | --- | --- | --- | --- | --- | --- | --- | --- | --- | --- |
|  |  | 5.4 | 21.6 | >86 | 21.6 | 86 | >86 | 86 | 86 | 43 | >86 | 43 |  |  | NCCCC[C@H](NC(=O)OCc1ccccc1Cl)C(=O)NCCCN[C@@H](CCCCN(CCCNC(=O)[C@H](CCCCN)NC(=O)OCc1ccccc1Cl)CCCNC(=O)[C@H](CCCCN)NC(=O)OCc1ccccc1Cl)C(=O)NCc1ccccc1 [Compound 7h, N,N,N’-tris[(N^α-2-chlorobenzyloxycarbonyl)-L-lysil-3-aminopropyl]-L-lysine benzylamide penta-hydrochloride] |
|  |  | 3.4 | 1.7 | >55 | 3.4 | 6.8 | 6.8 | 30.2 | 7.3 | 6.9 | 13.8 | 6.8 |  |  | NCCCC[C@H](NC(=O)OCc1ccccc1Cl)C(=O)N[C@@H](Cc1ccccc1)C(=O)NCCCN(CCCNC(=O)[C@H](Cc1ccccc1)NC(=O)[C@H](CCCCN)NC(=O)OCc1ccccc1Cl)C[C@@H](CO)N(CCCNC(=O)[C@H](Cc1ccccc1)NC(=O)[C@H](CCCCN)NC(=O)OCc1ccccc1Cl)CCCNC(=O)[C@H](Cc1ccccc1)NC(=O)[C@H](CCCCN)NC(=O)OCc1ccccc1Cl [Compound 10a, N,N',N,N’-tetrakis[(N^α-2-chlorobenzyloxycarbonyl)-L-lysil-L-phenylalanyl-3-aminopropyl]-L-α,δ-diaminopropanol hexahydrochloride] |
|  |  | 3.4 | 1.3 | >55 | 7.3 | 6.9 | 6.9 | 47 | 7.3 | 6.9 | 13.8 | 6.9 |  |  | NCCCC[C@H](NC(=O)OCc1ccccc1Cl)C(=O)N[C@@H](Cc1ccccc1)C(=O)NCCCN(CCCNC(=O)[C@H](Cc1ccccc1)NC(=O)[C@H](CCCCN)NC(=O)OCc1ccccc1Cl)CC[C@@H](CO)N(CCCNC(=O)[C@H](Cc1ccccc1)NC(=O)[C@H](CCCCN)NC(=O)OCc1ccccc1Cl)CCCNC(=O)[C@H](Cc1ccccc1)NC(=O)[C@H](CCCCN)NC(=O)OCc1ccccc1Cl [Compound 10b, N,N',N,N’-tetrakis[(N^α-2-chlorobenzyloxycarbonyl)-L-lysil-L-phenylalanyl-3-aminopropyl]-L-α,δ-diaminobutanol hexahydrochloride] |
|  |  |  |  |  |  |  |  |  |  |  |  |  | 6.6 (≈ 2.21 µg/mL) |  | CC1(C)S[C@@H]2[C@H](NC(=O)Cc3ccccc3)C(=O)N2[C@H]1C(=O)O [Penicillin G, reference compound] |
|  |  |  |  |  |  |  |  |  |  |  |  |  |  | 1.1 (≈ 1.02 µg/mL) | C[C@@H]1[C@H](O)[C@@H](C)/C=C/C=C/C=C/C=C/C=C/C=C/C=C/[C@H](O[C@@H]2O[C@H](C)[C@@H](O)[C@H](N)[C@@H]2O)C[C@@H]2O[C@](O)(C[C@@H](O)C[C@@H](O)[C@H](O)CC[C@@H](O)C[C@@H](O)CC(=O)O[C@H]1C)C[C@H](O)[C@H]2C(=O)O [amphotericin B, reference compound] |
